pKi: −log10 of the molar value.
Experiments:
[1] = target: T1, Adrenergic receptor alpha-1 (Rattus norvegicus, UniProt P15823+P23944+P43140); experiment: in vitro alpha-1 adrenergic receptor binding assay from rats, using RX 821002 as the displaceable ligand; assay type: protein assay
T1 sequence (P15823 whole entry): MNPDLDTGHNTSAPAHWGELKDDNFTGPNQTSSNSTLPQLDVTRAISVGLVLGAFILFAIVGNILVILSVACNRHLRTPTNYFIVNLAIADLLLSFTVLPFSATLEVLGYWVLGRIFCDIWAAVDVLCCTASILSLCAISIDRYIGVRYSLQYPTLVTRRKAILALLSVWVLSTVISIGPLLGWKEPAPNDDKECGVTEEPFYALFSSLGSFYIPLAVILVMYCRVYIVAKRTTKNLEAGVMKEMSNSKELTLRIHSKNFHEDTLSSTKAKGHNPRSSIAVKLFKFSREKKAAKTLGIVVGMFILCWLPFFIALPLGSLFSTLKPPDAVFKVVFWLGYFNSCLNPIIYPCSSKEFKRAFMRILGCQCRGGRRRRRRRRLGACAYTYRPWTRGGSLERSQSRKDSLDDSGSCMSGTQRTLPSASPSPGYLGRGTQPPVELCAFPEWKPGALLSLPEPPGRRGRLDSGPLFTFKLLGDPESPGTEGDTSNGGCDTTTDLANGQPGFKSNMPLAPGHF
T1 sequence (P23944 whole entry): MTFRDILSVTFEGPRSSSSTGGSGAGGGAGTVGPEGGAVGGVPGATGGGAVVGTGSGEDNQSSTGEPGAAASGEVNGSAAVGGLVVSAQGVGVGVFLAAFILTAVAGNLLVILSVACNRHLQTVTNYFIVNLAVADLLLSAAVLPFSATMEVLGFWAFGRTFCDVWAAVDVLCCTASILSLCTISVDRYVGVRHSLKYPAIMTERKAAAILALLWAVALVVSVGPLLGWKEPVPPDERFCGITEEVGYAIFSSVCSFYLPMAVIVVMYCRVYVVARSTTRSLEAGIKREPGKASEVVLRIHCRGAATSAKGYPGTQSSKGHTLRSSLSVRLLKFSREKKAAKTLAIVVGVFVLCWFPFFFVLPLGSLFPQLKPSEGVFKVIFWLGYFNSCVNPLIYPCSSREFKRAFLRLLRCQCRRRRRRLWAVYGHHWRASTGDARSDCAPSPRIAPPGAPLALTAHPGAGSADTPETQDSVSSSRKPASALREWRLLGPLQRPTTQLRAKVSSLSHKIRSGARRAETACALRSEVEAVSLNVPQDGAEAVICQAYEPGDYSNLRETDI
T1 sequence (P43140 whole entry): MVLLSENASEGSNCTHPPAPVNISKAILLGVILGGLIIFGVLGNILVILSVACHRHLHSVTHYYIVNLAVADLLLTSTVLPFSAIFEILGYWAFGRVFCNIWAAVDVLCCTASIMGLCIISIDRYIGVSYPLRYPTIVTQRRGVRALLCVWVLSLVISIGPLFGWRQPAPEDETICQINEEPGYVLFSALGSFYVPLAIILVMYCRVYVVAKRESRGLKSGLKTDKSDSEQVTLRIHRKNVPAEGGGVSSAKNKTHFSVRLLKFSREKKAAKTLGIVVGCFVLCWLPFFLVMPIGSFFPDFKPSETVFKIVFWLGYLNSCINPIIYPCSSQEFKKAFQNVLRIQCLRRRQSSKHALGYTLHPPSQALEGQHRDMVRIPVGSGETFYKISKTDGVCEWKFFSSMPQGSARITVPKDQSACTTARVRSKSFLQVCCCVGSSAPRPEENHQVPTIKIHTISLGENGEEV

Mus musculus [2] = experiment: (§1) potential antinociceptive activity initially at a screening dose of 30 mg/kg po in the mouse abdominal irritant test(MAIT) using acetylcholine bromide as irritant; assay type: functional; conditions: Abdomen
[3] = target: T2, Alpha-2A adrenergic receptor (Rattus norvegicus, UniProt P22909); experiment: in vitro alpha-2A adrenergic receptor binding assay from rats, using RX 821002 as the displaceable ligand
T2 sequence (P22909 whole entry): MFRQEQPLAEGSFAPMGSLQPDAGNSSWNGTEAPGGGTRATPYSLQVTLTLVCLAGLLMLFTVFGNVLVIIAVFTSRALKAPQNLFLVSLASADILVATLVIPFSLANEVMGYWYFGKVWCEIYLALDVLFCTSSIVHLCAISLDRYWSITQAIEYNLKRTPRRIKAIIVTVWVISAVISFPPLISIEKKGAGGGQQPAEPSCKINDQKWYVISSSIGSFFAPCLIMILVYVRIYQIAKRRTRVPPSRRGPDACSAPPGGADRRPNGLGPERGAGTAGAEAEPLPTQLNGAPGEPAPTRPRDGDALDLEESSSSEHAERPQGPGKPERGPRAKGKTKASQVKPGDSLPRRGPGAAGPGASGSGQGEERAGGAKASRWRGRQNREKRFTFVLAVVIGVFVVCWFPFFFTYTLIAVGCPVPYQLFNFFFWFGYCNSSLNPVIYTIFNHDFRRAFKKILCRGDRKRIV

[4] = target: T3, Alpha-2B adrenergic receptor (Rattus norvegicus, UniProt P19328); experiment: in vitro alpha-2B adrenergic receptor binding assay from rats, using RX 821002 as the displaceable ligand
T3 sequence (P19328 whole entry): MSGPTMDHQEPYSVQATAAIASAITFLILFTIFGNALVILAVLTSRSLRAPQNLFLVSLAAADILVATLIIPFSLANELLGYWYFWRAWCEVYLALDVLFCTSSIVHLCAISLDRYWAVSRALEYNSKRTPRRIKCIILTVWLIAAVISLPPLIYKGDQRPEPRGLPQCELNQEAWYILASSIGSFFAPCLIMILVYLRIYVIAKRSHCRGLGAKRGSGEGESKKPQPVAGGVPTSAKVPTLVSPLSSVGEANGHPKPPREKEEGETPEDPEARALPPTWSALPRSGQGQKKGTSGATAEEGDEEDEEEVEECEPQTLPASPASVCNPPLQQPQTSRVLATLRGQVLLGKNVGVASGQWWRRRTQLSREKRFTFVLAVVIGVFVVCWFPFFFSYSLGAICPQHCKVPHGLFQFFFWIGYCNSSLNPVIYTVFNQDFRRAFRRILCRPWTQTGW

[5] = target: T4, Alpha-2C adrenergic receptor (Rattus norvegicus, UniProt P22086); experiment: in vitro alpha-2C adrenergic receptor binding assay from rats, using RX 821002 as the displaceable ligand
T4 sequence (P22086 whole entry): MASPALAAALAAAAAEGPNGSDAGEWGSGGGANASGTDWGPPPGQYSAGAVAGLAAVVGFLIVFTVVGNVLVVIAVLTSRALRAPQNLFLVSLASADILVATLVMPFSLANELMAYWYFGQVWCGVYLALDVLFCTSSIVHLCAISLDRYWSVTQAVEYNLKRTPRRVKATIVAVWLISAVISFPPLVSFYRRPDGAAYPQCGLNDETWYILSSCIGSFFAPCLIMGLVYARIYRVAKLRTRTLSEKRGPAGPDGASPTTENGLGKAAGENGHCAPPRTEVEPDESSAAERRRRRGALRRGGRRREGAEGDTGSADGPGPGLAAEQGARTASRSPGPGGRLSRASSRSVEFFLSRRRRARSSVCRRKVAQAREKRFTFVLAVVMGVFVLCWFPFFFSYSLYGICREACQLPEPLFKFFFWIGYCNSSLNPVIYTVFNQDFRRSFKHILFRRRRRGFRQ

Rattus norvegicus = organism: Rattus norvegicus; experiment: ED50 value was measured using rat air-induced abdominal irritant test(RAIT); assay type: functional; conditions: Abdomen
[6] = target: T5, Alpha-2C adrenergic receptor (Rattus norvegicus) (UniProt P22086); experiment: % inhibition of alpha-2C adrenergic receptor binding at 1 uM
T5 sequence (whole entry): T4 sequence (P22086 whole entry)

[7] = target: T6, Alpha-2A adrenergic receptor (Rattus norvegicus) (UniProt P22909); experiment: % inhibition of alpha-2A adrenergic receptor binding at 1 uM
T6 sequence (whole entry): T2 sequence (P22909 whole entry)

Mus musculus [8] = organism: Mus musculus; experiment: Peroral ED50 value was measured using mouse tail flick test; assay type: functional; conditions: po
Mus musculus [9] = organism: Mus musculus; experiment: Peroral ED50 value was measured using mouse 48 degree hot plate test; assay type: functional; conditions: po
Mus musculus [10] = organism: Mus musculus; experiment: Peroral ED50 value was measured using mouse abdominal irritant test(MAIT); assay type: functional; conditions: Abdomen, po
Mus musculus [11] = experiment: as §1; conditions: Abdomen, read-out: Inhibition

SMILES | pKi [1] | inhibition in vivo at 30 mg/kg (Mus musculus [2]) [%] | pKi [3] | pKi [4] | pKi [5] | ED50 (Rattus norvegicus) [mg/kg] | inhibition [6] [%] | inhibition [7] [%] | ED50 (Mus musculus [8]) [mg/kg] | ED50 (Mus musculus [9]) [mg/kg] | ED50 (Mus musculus [10]) [mg/kg] | inhibition in vivo at 30 mg/kg (Mus musculus [11]) [%]
c1cc(-c2c[nH]cn2)c2ccsc2c1 | 6.46 | 60 | 6.56 | 6.18 | – | – | – | – | – | – | – | –
c1nc(C2CCCc3sccc32)c[nH]1 (configuration not stated) | 6.96 | 100 | 7.57 | 7.00 | 6.76 | 0.9 | – | – | – | – | – | –
c1nc(C2CCCc3ccsc32)c[nH]1 (configuration not stated) | 7.04 | 73 | – | – | – | – | 54 | 87 | – | – | – | –
C1=C(c2c[nH]cn2)c2ccsc2CC1 | 6.35 | 100 | 6.60 | 6.21 | – | 15.1 | – | – | 100 | 25.9 | 11.6 | –
C1=C(c2c[nH]cn2)c2sccc2CC1 | 6.40 | 60 | 6.65 | 6.03 | – | – | – | – | – | – | – | –
Clc1cccc(Cl)c1NC1=NCCN1 [CLONIDINE] | – | 0.05 | – | – | – | 0.1 | – | – | – | – | – | –
Cc1cccc([C@H](C)c2cnc[nH]2)c1C [DEXMEDETOMIDINE] | – | – | 8.30 | – | – | 0.12 | – | – | – | – | – | 0.09
Cc1sc(C)c2c1CCC=C2c1c[nH]cn1 | 6.96 | 40 | 7.60 | 7.00 | 7.59 | – | – | – | – | – | – | –
Cc1sc(C)c2c1CCCC2c1c[nH]cn1 (configuration not stated) | 7.32 | 93 | 7.17 | 6.85 | 6.69 | 7.9 | – | – | – | – | – | –

From ChEMBL document CHEMBL1133002 (J Med Chem, 2000)
